Measured values published in US12514832B2, “Methods for using low-dose colchicine after myocardial infarction” (INSTITUT DE CARDIOLOGIE DE MONTREAL, priority 2019, dated 2026).

Legend:
[1] = test system: high-sensitivity C-reactive protein; test: COLCOT biomarker substudy: high-sensitivity C-reactive protein; type: in vivo, human
Source text: Additional prespecified exploratory end points included the change from baseline to 6 months in the high-sensitivity C-reactive protein level and the change from baseline to 12 months in the white-cell count. The C-reactive protein biomarker substudy was implemented after a protocol amendment and was optional for sites and for patients; 34 sites chose to participate in this substudy.
The analysis of the primary end point was repeated in the per-protocol population (i.e., patients without major protocol deviations). Secondary and exploratory end points expressed as time to event were analyzed similarly. The changes from baseline to follow-up were analyzed with the use of an analysis of covariance model with adjustment for baseline value, and estimates of treatment effect are presented with 95% confidence intervals.
High-sensitivity C-reactive protein was measured in a subgroup of only 207 patients at the time of randomization and 6 months later, and the median concentration at trial entry was 4.28 mg per liter. […] The adjusted geometric mean percent changes in the high-sensitivity C-reactive protein level at 6 months after myocardial infarction were −70.0% in the colchicine group and −66.6% in the placebo group, and the placebo-adjusted geometric mean percent change was −10.1% percentage points in the colchicine group (95% CI, −28.6 to 13.4) (Table 8).
In Table 8, the placebo-adjusted geometric mean percent change was obtained by exponentiating the adjusted mean difference between groups from the analysis of covariance model (based on log-transformed data), then subtracting 1 and multiplying by 100.
In addition, the C-reactive protein biomarker sub-study was implemented following a protocol amendment and was optional for sites and for patients; 34 sites accepted to participate in this substudy. There were 213 and 208 patients who provided blood samples at baseline and 6 months, respectively. Paired baseline and 6-month hs-CRP values were available in 207 patients. Clinically available white blood cell counts were obtained from 2598 patients at baseline and 1998 patients at 12 months, and paired baseline and 12-month values were available in 1972 patients. Statistical analysis was conducted on the patients who provided both baseline and follow-up data and as these were exploratory analyses, no missing data was imputed.

[2] = COLCOT safety and adverse events (safety population); type: in vivo, human
Protocol: All serious adverse events were recorded. The only other adverse events recorded were those that were considered to be related to the gastrointestinal system, events that were judged by the investigator to be related to colchicine or placebo, or laboratory abnormalities that had been judged by the investigator to be clinically significant.

## COc1cc2c(c(OC)c1OC)-c1ccc(OC)c(=O)cc1[C@@H](NC(C)=O)CC2 [Colchicine, colchicine]
[1]; at 6 months, N=99
  Hs-C reactive protein, geometric mean: 1.37 mg/L
[1]; at Randomization (baseline), N=99
  Hs-C reactive protein, geometric mean: 4.27 mg/L
[1]; baseline to 6 months, N=99
  Hs-C reactive protein, Adjusted GM percent change: −70.0%
[1]; baseline to 6 months, colchicine vs placebo
  Hs-C reactive protein, Placebo-adjusted GM percent change: −10.1%
[1]; over the first 6 months after myocardial infarction, in both trial groups, difference between groups not significant
  reduction in the C-reactive protein level: > 65%
[2]; at the end of the trial
  trial regimen discontinued, percent of patients: 18.4%
[2]; colchicine vs placebo
  incidence of septic shock (in words): did not increase the incidence of septic shock
[2]; safety population
  Cancers, excluding nonmelanoma skin cancers, number of patients: 42
  Cancers, excluding nonmelanoma skin cancers, percent: 1.8%
[2]; safety population, N=2330
  Anemia, number of patients: 14
  Anemia, percent: 0.6%
  Any related adverse event, number of patients: 372
  Any related adverse event, percent: 16.0%
  Any serious adverse event, number of patients: 383
  Any serious adverse event, percent: 16.4%
  Cancer, number of patients: 43
  Cancer, percent: 1.8%
  Diarrhea adverse event, number of patients: 225
  Diarrhea adverse event, percent: 9.7%
  Flatulence adverse event, number of patients: 15
  Flatulence adverse event, percent: 0.6%
  Gastrointestinal adverse event, number of patients: 408
  Gastrointestinal adverse event, percent: 17.5%
  Gastrointestinal hemorrhage, number of patients: 7
  Gastrointestinal hemorrhage, percent: 0.3%
  Gastrointestinal serious adverse event, number of patients: 46
  Gastrointestinal serious adverse event, percent: 2.0%
  Hospitalization for heart failure, number of patients: 25
  Hospitalization for heart failure, percent: 1.1%
  Infection serious adverse event, number of patients: 51
  Infection serious adverse event, percent: 2.2%
  Leukopenia, number of patients: 2
  Leukopenia, percent: 0.1%
  Nausea adverse event, number of patients: 43
  Nausea adverse event, percent: 1.8%
  Pneumonia serious adverse event, number of patients: 21
  Pneumonia serious adverse event, percent: 0.9%
  Septic shock serious adverse event, number of patients: 2
  Septic shock serious adverse event, percent: 0.1%
  Thrombocytopenia, number of patients: 3
  Thrombocytopenia, percent: 0.1%
[2]; statins used in 99% of trial participants
  serious adverse event of myopathy: no serious adverse event of myopathy linked to colchicine occurred
